Reference: patent US20050009759A1 (priority 2001, published 2005)
≈ marks a conversion by molar mass, not a printed value. Where two headings read alike, the source gives them in different places.

What was measured:
Solubility in water = type: physicochemical; conditions: for solubility: water, in water / aqueous solvents
L1210 cells = assay: In vitro cytotoxicity, microculture tetrazolium assay (MTA); type: cell-based; conditions: Mus musculus
Description: Cytotoxicity was tested against L1210 (mouse leukemic cell line) cells using the MTA assay.
L1210 cells were cultivated in RPMI 1640 medium (Gibco) supplemented with 10% fetal calf serum, 2 mM L-glutaine, 100 units/mL penicillin, 100 µg/mL streptomycin, and 10 mM HEPES buffer (pH=7.4). Cytotoxicity was measured by the microculture tetrazolium assay (MTA). Cells were exposed to graded concentrations of drug (nine serial dilutions in triplicate) for 48 h. Results are expressed as IC50, the concentration which reduced by 50% the optical density of treated cells with respect to the optical density of untreated controls.

[1] = Stability in phosphate buffer solution followed by HPLC; type: physicochemical; conditions: phosphate buffer pH 7 (0.02 M, pH 7.2), 37° C.
Description: The stability of 1a was followed by HPLC measurements in buffer solution at pH 7 for 24 hours. More than 90% of the prodrug was recovered after that time, meaning that the prodrug 1a is stable in vitro.
(§1) Good separation in a short delay was obtained with a reversed-phase Phenyl analytical column (Spherisorb 250×4,6) using isocratic conditions (1 mL/min) of 60% phosphate buffer (0.02 M, pH 3) and 40% acetonitrile with UV detection at 254 nm. Using these conditions the retention time of etoposide, prodrug, and cyclized spacer were 4.9, 3.4, 5.8. min., respectively.
A solution of […] of prodrug 1a in 0.02 M phosphate buffer (pH 7.2) was incubated for various times at 37° C. Aliquots (100 μL) were taken at various times and analyzed by HPLC after dilution with eluent (300 μL).

[2] = molecular target: E. coli β-D-glucuronidase (Escherichia coli, UniProt P05804); assay: Enzymatic cleavage by E. coli β-D-glucuronidase (kinetics of drug release, HPLC); type: biochemical; conditions: E. coli β-D-glucuronidase in phosphate buffer; 500 μg/mL prodrug, 20 μg/mL E. coli β-D-glucuronidase, phosphate buffer pH 7.2, 37° C.
E. coli β-D-glucuronidase, sequence (P05804 whole entry): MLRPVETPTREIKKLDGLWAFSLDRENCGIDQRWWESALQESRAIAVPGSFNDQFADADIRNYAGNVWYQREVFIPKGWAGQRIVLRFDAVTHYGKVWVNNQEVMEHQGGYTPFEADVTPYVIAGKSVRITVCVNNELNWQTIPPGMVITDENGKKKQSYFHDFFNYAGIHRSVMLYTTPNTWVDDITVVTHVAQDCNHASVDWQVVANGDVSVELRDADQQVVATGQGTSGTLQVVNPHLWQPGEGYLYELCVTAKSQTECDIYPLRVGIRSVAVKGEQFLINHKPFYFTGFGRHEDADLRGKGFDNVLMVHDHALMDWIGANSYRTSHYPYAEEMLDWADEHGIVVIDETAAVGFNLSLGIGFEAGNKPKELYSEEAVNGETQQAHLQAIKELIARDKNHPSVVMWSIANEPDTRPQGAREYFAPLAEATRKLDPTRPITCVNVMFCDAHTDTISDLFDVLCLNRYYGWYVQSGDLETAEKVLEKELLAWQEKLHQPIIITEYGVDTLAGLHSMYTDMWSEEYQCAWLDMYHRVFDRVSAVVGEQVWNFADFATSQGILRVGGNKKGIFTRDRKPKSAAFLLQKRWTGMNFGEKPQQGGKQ
Description: Prodrug 1a (500 μg/mp) was incubated with E. coli β-D-glucuronidase (20 μ/mL). Aliquot samples were analysed by IPLC at different times (FIG. 1: Enzymatic cleavage of prodrug 1a).
as §1
Hydrolysis was investigated by incubating a solution of 500 μg/mL of prodrug 3 and 20 μg/mL of E. coli β-D-glucuronidase in 0.02 M phosphate buffer (pH 7.2) at 37° C. Aliquots (100 μl) were taken at various times and analyzed by HPLC after dilution with 300 μl of eluent.

Row | Compound | solubility (Solubility in water) [mg/mL] | IC50 (L1210 cells; L1210 cell line, 48 h exposure, without enzyme, read-out: IC50) [nM] | fold more soluble than the corresponding drug (Solubility in water; in water, comparable conditions, versus etoposide) | prodrug recovered/remaining after 24 hours [1] | melting point [°C] | half-life at 500 μg/mL [2] [min] | IC50 (L1210 cells; L1210, 48 h) [nM] | IC50 (L1210 cells; L1210, read-out: IC50 after hydrolysis by β-glucuronidase) [nM]
1 | COc1cc([C@@H]2c3cc4c(cc3[C@@H](O[C@@H]3O[C@@H]5CO[C@@H](C)O[C@H]5[C@H](O)[C@H]3O)[C@H]3COC(=O)[C@H]23)OCO4)cc(OC)c1O [etoposide, reference compound] | 0.1 (≈ 0.17 mM) | 834 |  |  |  |  |  | 
2 | COc1cc([C@@H]2c3cc4c(cc3C(OC3OC5COC(C)O[C@H]5C(O)[C@@H]3O)[C@H]3COC(=O)[C@H]23)OCO4)cc(OC)c1OC(=O)N(C)c1cc([N+](=O)[O-])ccc1O[C@@H]1OC(C(=O)O)[C@@H](O)C(O)C1O (stereo partly drawn) [prodrug 1a] | ~20 (≈ 20.9 mM) |  | approximately 200 fold | More than 90% | 186 | < 25 | 50200 | 930
